From patent US12290519B2, “Anti-inflammatory coupling compound drug, and preparation method therefor and use thereof” (COVAL BIOPHARMA (SHANGHAI) CO., LTD., priority 2021, dated 2025)

Experiment: Hydrolysis rate / drug release rate of the compounds (release of JAK inhibitor, HPLC)
Type: physicochemical
Conditions: % release of JAK inhibitor from sample in acetonitrile/water=7/3 (v/v), 37° C. constant temperature shaker, sampled days 1-4, HPLC
Experimental: Analysis Method for Hydrolysis Rate of Compounds of the Present Invention
1. Preparation of Standard Working Curve Solution
(§1) About 10 mg of JAK inhibitors (tofacitinib and baricitinib) reference substances were weighed into a 25 mL volumetric flask, acetonitrile/water=7/3 (v/v) was added to dissolve and dilute to the marked volume, serving as a stock solution. The stock solution was diluted with a suitable dilution factor to obtain linear solutions of each concentration: 0.0002 mg/mL, 0.0004 mg/mL, 0.004 mg/mL, 0.04 mg/mL, and 0.08 mg/mL.
as §1, with “(Oclacitinib, Ruxolitinib, Delgocitinib,” for “(tofacitinib”, “Upadacitinib)” for “baricitinib)”
2. Preparation of Sample Solution
About 5 mg of the sample (the compound prepared in the present invention) was weighed into a 20 mL volumetric flask, acetonitrile/water=7/3 (v/v) was added to dissolve and dilute to the marked volume, serving as a stock solution. An appropriate amount of HPLC was loaded as the 0-day sample. The test solution was sealed with a sealing film and placed in a 37° C. constant temperature shaker. The test samples were taken at the same time on days 1, 2, 3, and 4 respectively. the release amount of JAK inhibitor in the sample was calculated according to the sample weight and JAK inhibitor standard curve.
3. Calculation Formula % Release of JAK Inhibitor r=100%×((AJAK Inhibitor−b)/a)/((W/20×M2/M1) wherein • AJAK inhibitor is the peak area of JAK inhibitor in the sample chromatogram • b is the intercept of the standard curve M1 is the molecular weight of the sample a is the slope of the standard curve
W is the sample weight (mg) M2 is the molecular weight of the JAK inhibitor
4. Chromatographic Conditions

Structure (SMILES)	Release Rate (%/day)
CC(C(=O)n1ccc2c(-c3cnn([C@H](CC#N)C4CCCC4)c3)ncnc21)c1cccc(Oc2ccccc2)c1 (stereo partly drawn) [Ex. 54, (3R)-3-cyclopentyl-3-(4-(7-(2-(3-phenoxyphenyl)propanoyl)-7H-pyrrolo [2,3-d]pyrimidin-4-yl)-1H-pyrazol-1-yl) propanenitrile]	4.93
COc1ccc2c(c1)c(CC(=O)OCn1ccc3c(N(C)[C@H]4CN(C(=O)CC#N)CC[C@H]4C)ncnc31)c(C)n2C(=O)c1ccc(Cl)cc1 [Ex. 55, (4-(((3R, 4R)-1-(2-cyanoacetyl)-4-methylpiperidin-3-yl) (methyl)amino)-7H-pyrrolo [2,3-d]pyrimidin-7-yl) methyl 2-(1-(4-chlorobenzoyl)-5-methoxy-2-methyl-1H-indol-3-yl) acetate]	0.16
CC(=O)Oc1ccccc1C(=O)OCn1ccc2c(N(C)[C@H]3CN(C(=O)CC#N)CC[C@H]3C)ncnc21 [Ex. 56, (4-(((3R, 4R)-1-(2-cyanoacetyl)-4-methylpiperidin-3-yl) (methyl)amino)-7H-pyrrolo [2,3-d]pyrimidin-7-yl) methyl 2-acetoxybenzoate]	0.07
Cc1c(Cl)cccc1Nc1ccccc1C(=O)n1ccc2c(-c3cnn([C@H](CC#N)C4CCCC4)c3)ncnc21 [Ex. 57, (R)-3-(4-(7-(2-((3-chloro-2-methylphenyl)amino)benzoyl)-7H-pyrrolo [2,3-d]pyrimidin-4-yl)-1H-pyrazol-1-yl)-3-cyclopentylpropanenitrile]	0.57
CNS(=O)(=O)C[C@H]1CC[C@H](N(C)c2ncnc3c2ccn3C(=O)Cc2ccc(NC(C)=O)cc2)CC1 [Ex. 58, N-(4-(2-(4-(methyl ((trans)-4-((N-methylsulfamoyl)methyl)cyclohexyl)amino)-7H-pyrrolo [2,3-d]pyrimidin-7-yl)-2-oxoethyl)phenyl) acetamide]	12.46
CC(=O)Nc1ccc(CC(=O)OCn2ccc3c(N(C)[C@H]4CN(C(=O)CC#N)CC[C@H]4C)ncnc32)cc1 [Ex. 59, (4-(((3R, 4R)-1-(2-cyanoacetyl)-4-methylpiperidin-3-yl) (methyl)amino)-7H-pyrrolo [2,3-d]pyrimidin-7-yl) methyl 2-(4-acetamidophenyl) acetate]	0.15
CCS(=O)(=O)N1CC(CC#N)(n2cc(-c3ncnc4c3ccn4COC(=O)[C@@H](C)c3ccc(CC(C)C)cc3)cn2)C1 [Ex. 60, Methyl (4-(1-(3-(cyanomethyl)-1-(ethylsulfonyl)azetidin-3-yl)-1H-pyrazol-4-yl)-7H-pyrrolo [2,3-d]pyrimidin-7-yl) (S)-2-(4-isobutylphenyl) propanoate]	<0.01
CCS(=O)(=O)N1CC(CC#N)(n2cc(-c3ncnc4c3ccn4COC(=O)[C@@H](C)c3ccc4cc(OC)ccc4c3)cn2)C1 [Ex. 61, Methyl (4-(1-(3-(cyanomethyl)-1-(ethylsulfonyl)azetidin-3-yl)-1H-pyrazol-4-yl)-7H-pyrrolo [2,3-d]pyrimidin-7-yl) (S)-2-(6-methoxynaphthalen-2-yl) propanoate]	<0.01
CCS(=O)(=O)N1CC(CC#N)(n2cc(-c3ncnc4c3ccn4COC(=O)C(C)c3cccc(C(=O)c4ccccc4)c3)cn2)C1 (stereo not shown) [Ex. 62, 4-(1-(3-(cyanomethyl)-1-(ethylsulfonyl)azetidin-3-yl)-1H-pyrazol-4-yl)-7H-pyrrolo [2,3-d] pyrimidin-7-yl) methyl 2-(3-benzoylphenyl) propanoate]	0.01
CCc1cccc2c3c([nH]c12)C(CC)(CC(=O)OCn1ccc2c(N(C)[C@H]4CN(C(=O)CC#N)CC[C@H]4C)ncnc21)OCC3 (stereo partly drawn) [Ex. 63, (4-(((3R, 4R)-1-(2-cyanoacetyl)-4-methylpiperidin-3-yl) (methyl)amino)-7H-pyrrolo [2,3-d]pyrimidin-7-yl) methyl 2-(1,8-diethyl-1,3,4,9-tetrahydropyrano [3,4-b]indol-1-yl) acetate]	0.02
C[C@@H]1CCN(C(=O)CC#N)C[C@@H]1N(C)c1ncnc2c1ccn2COC(=O)[C@@H](NC(=O)OC(C)(C)C)c1ccccc1 [Ex. 64, (4-(((3R, 4R)-1-(2-cyanoacetyl)-4-methylpiperidin-3-yl) (methyl)amino)-7H-pyrrolo [2,3-d]pyrimidin-7-yl) methyl (S)-2-((tert-butoxycarbonyl)amino)-2-phenylacetate]	0.88
CCC(C(=O)OCn1ccc2c(N(C)[C@H]3CN(C(=O)CC#N)CC[C@H]3C)ncnc21)c1ccc(N2Cc3ccccc3C2=O)cc1 (stereo partly drawn) [Ex. 65, (4-(((3R, 4R)-1-(2-cyanoacetyl)-4-methylpiperidin-3-yl) (methyl)amino)-7H-pyrrolo [2,3-d]pyrimidin-7-yl) methyl 2-(4-(1-oxoisoindol-2-yl)) phenyl) butanoate]	0.01
Cc1c(Cl)cccc1Nc1ccccc1C(=O)OCn1ccc2c(N(C)[C@H]3CN(C(=O)CC#N)CC[C@H]3C)ncnc21 [Ex. 66, (4-(((3R, 4R)-1-(2-cyanoacetyl)-4-methylpiperidin-3-yl) (methyl)amino)-7H-pyrrolo [2,3-d]pyrimidin-7-yl) methyl 2-((3-chloro-2-methylphenyl)amino) benzoate]	0.06
Cc1cccc(Nc2ccccc2C(=O)OCn2ccc3c(N(C)[C@H]4CN(C(=O)CC#N)CC[C@H]4C)ncnc32)c1C [Ex. 67, (4-(((3R, 4R)-1-(2-cyanoacetyl)-4-methylpiperidin-3-yl) (methyl)amino)-7H-pyrrolo [2,3-d]pyrimidin-7-yl) methyl 2-((2,3-dimethylphenyl)amino) benzoate]	0.02
CNS(=O)(=O)C[C@H]1CC[C@H](N(C)c2ncnc3c2ccn3C(=O)C(C)c2cccc(Oc3ccccc3)c2)CC1 (stereo partly drawn) [Ex. 68, N-methyl-1-((trans)-4-(methyl (7-(2-(3-phenoxyphenyl)propanoyl)-7H-pyrrolo [2,3-d]pyrimidin-4-yl)amino)cyclohexyl) methanesulfonamide]	10.6
CCS(=O)(=O)N1CC(CC#N)(n2cc(-c3ncnc4c3ccn4COC(=O)C(C)c3ccc(-c4ccccc4)c(F)c3)cn2)C1 (stereo not shown) [Ex. 69, Methyl (4-(1-(3-(cyanomethyl)-1-(ethylsulfonyl)azetidin-3-yl)-1H-pyrazol-4-yl)-7H-pyrrolo [2,3-d]pyrimidin-7-yl) 2-(2-fluoro-[1, 1′-biphenyl]-4-yl) propanoate]	0.03
CCS(=O)(=O)N1CC(CC#N)(n2cc(-c3ncnc4c3ccn4COC(=O)Cc3ccccc3Nc3c(Cl)cccc3Cl)cn2)C1 [Ex. 70, Methyl (4-(1-(3-(cyanomethyl)-1-(ethylsulfonyl)azetidin-3-yl)-1H-pyrazol-4-yl)-7H-pyrrolo [2,3-d]pyrimidin-7-yl) 2-(2-((2,6-dichlorophenyl)amino)phenyl) acetate]	0.42
CCS(=O)(=O)N1CC(CC#N)(n2cc(-c3ncnc4c3ccn4COC(=O)C(C)c3cccc(Oc4ccccc4)c3)cn2)C1 (stereo not shown) [Ex. 71, Methyl (4-(1-(3-(cyanomethyl)-1-(ethylsulfonyl)azetidin-3-yl)-1H-pyrazol-4-yl)-7H-pyrrolo [2,3-d]pyrimidin-7-yl) 2-(3-phenoxyphenyl) propanoate]	0.01
CCS(=O)(=O)N1CC(CC#N)(n2cc(-c3ncnc4c3ccn4COC(=O)C(C)c3ccc(CC4CCCC4=O)cc3)cn2)C1 (stereo not shown) [Ex. 72, Methyl (4-(1-(3-(cyanomethyl)-1-(ethylsulfonyl)azetidin-3-yl)-1H-pyrazol-4-yl)-7H1-pyrrolo [2,3-d]pyrimidin-7-yl) 2-(4-((2-oxocyclopentyl)methyl)phenyl) propanoate]	<0.01
CCS(=O)(=O)N1CC(CC#N)(n2cc(-c3ncnc4c3ccn4COC(=O)Cc3c(C)n(C(=O)c4ccc(Cl)cc4)c4ccc(OC)cc34)cn2)C1 [Ex. 73, Methyl (4-(1-(3-(cyanomethyl)-1-(ethylsulfonyl)azetidin-3-yl)-1H-pyrazol-4-yl)-7H-pyrrolo [2,3-d]pyrimidin-7-yl) 2-(1-(4-chlorobenzoyl)-5-methoxy-2-methyl-1H-indol-3-yl) acetate]	0.2
CCS(=O)(=O)N1CC(CC#N)(n2cc(-c3ncnc4c3ccn4COC(=O)[C@@H](NC(=O)OC(C)(C)C)c3ccccc3)cn2)C1 [Ex. 74, Methyl (4-(1-(3-(cyanomethyl)-1-(ethylsulfonyl)azetidin-3-yl)-1H-pyrazol-4-yl)-7H-pyrrolo [2,3-d]pyrimidin-7-yl) (S)-2-((tert-butoxycarbonyl)amino)-2-phenylacetate]	0.44
N#CC[C@H](C1CCCC1)n1cc(-c2ncnc3c2ccn3C(=O)Cc2ccccc2Nc2c(Cl)cccc2Cl)cn1 [Ex. 75, (R)-3-cyclopentyl-3-(4-(7-(2-(2-((2,6-dichlorophenyl)amino)phenyl)acetyl)-7H-pyrrolo [2,3-d]pyrimidin-4-yl)-1H-pyrazol-1-yl) propanenitrile]	10.38
